In US20160050958A1, “IMPROVED SWEETENER” (TATE & LYLE INGREDIENTS AMERICAS LLC, priority 2013, published 2016):

Columns and labels:
[1] = Round table sweetness evaluation by test panelists (SEV determination against sucrose references); settings: samples made to equal sweet 10 SEV in neutral pH water, room temperature; references 4-14% sucrose
Experimental: Round table evaluations were performed with test panelists. Equal sweet 10 SEV concentrations in neutral pH water were made for allulose, AceK and fructose, as well as a composition comprising allulose, AceK and fructose. The components of the test compositions are described in the below tables. The mixed compositions were calculated using the Beidler mixture equation for the sweeteners. The Beidler mixture equation for sweeteners is as follows: […]
The concentration of each component in the mixture in ppm is divided by SEV (c/R) and is plotted against concentration, c. The slope of the linear regression is […]. The y-intercept of the linear regression multiplied by Rmax is the half-maximal sweetness concentration, 1/K. Rmax and 1/K are the two parameters used in the Beidler equation
The equal-molar mixture was tested against reference samples for the panelists to determine SEV values. […] The test samples were served in 2 ounce soufflé cups (approximately 60 ml) coded with 3-digit codes at room temperature. A two minute wait period between samples was enforced. Water and unsalted crackers was available for the panelists to clear their palates before and during testing. EyeQuestion was used for ballot development and recording of results. Results were collected in EyeQuestion for calculating approximate SEV level of each test sample.
The test products analyzed in this experiment are described below in Table 1.

[2] = % of the sweetness of sucrose; cited from earlier work

Structure (SMILES) | Mean sucrose equivalent value (SEV) [1] | Median sucrose equivalent value (SEV) [1] | Sweetness relative to sucrose [2]
CC1=CC(=O)[N-]S(=O)(=O)O1.[K+] [AceK, potassium salt of 6-methyl-1,2,3-oxathiazine-4(3H)-one 2,2-dioxide] | 9.286 | 8 | 
O=C(CO)C(O)C(O)C(O)CO (stereo not shown) [Allulose, allulose] | 10.14 | 10 | around 70%
O=C(CO)[C@@H](O)[C@H](O)[C@H](O)CO [Fructose, fructose] | 10.14 | 10 | 
